Laboratory results taken from patent US9326993B2, “Treatment of pulmonary and pleural fibrosis using HSP27 inhibitors” (ONCOGENEX TECHNOLOGIES INC., priority 2011, dated 2016).

Columns and labels:
[1] = test system: human mesothelial Met-5A cells; assay: rTGF-β1-induced EMT in Met-5A cells (western blot, RT-PCR); type: cell-based; settings: siRNA 50 nM, rTGF-β1 10 ng/ml
Protocol: (§1) Mesothelial rat established cell line 4/4 RM4 cells (American Type Culture Collection—ATCC—Rockville, Md.) were seeded in Ham's F10 (Lonza), with FBS 15%. Mesothelial human established cell line MET-5A (ATCC) were seeded in Medium 199 (lonza), 1% L-glutamine, 1% penicillin-streptomycin with 10% FBS. Epithelial human cell line A549 cells (ATCC) and were seeded in Ham's F10 (lonza) with 10% FBS.
(§2) For EMT induction and analysis, all the different cells were exposed to their respective medium containing 10 ng/ml recombinant (r)TGF-β1 (R&D system, Lille, France) for 6, 12, 24, or 48 hours.
(§3) HSP27 siRNA were purchased from applied bios system (Courtaboeuf, France). The sense and antisense sequence were respectively: 5′-GUUCAAAGCAACCACCUGUtt-3 (SEQ ID No: 4)′ and 5′-ACAGGUGGUUGCUUUGAACtt-3′. (SEQ ID No: 5). They were used at a concentration of 50 nM. SiRNA were transfected using INTERFERin (polyplus, Illkirch, France) following the manufacturer recommendations. 5-6 hours after transfection medium were changed and cells were treated or not with 10 ng/ml TGF-β1 for 12, 24 or 48 hours. Seq ID No. 3 was used as a random control oligonucleotide.
Protein extraction was made using triton X 100 during 30 min at 4° C., vortexing every 10 min. Protein dosage is made with the modified lowry kit (Biorad, Marne-la-Coquette, France). Equal amounts of protein (30-50 μg) were electrophoresed through 8 to 12% SDS polyacrylamide gels. The separate protein bands were transferred onto a PVDF membrane. The non-specific sites were saturated with a solution of PBS-tween 0.1%, nonfat milk 8%. Membranes were incubated with primary Abs over night at 4° C. Secondary Abs IgG linked to HRP (HorseRadish Peroxidase, Jackson ImmunoResearch Laboratories, PA, USA) were used at a concentration of 1/5000. Enhanced ChemiLuminescent substrat (ECL, santa cruz biotechnology, CA, USA) was used to detect the protein of interest. […]
(§4) Total RNA was extracted using TRIzol (Invitrogen, Cergy Pontoise, France) from MET-5A and A549 cells treated or not with rTGF-β1 12 or 24 hours and transfected or not by HSP27 siRNA or plasmid encoding HSP27. […] Quantitative RT-PCR was performed on the cDNA using the SYBR green master mix (promega, Charbonnieres, France). […]

[2] = test system: epithelial A549 cells; assay: rTGF-β1-induced EMT in A549 cells; type: cell-based, human; settings: siRNA 50 nM, rTGF-β1 10 ng/ml
Protocol: as §1, §2
as §3, with “Seq ID No. 3 was used as a random control oligonucleotide.” left out
as §4

[3] = test system: mesothelial Met-5A cells; assay: Scratch test (migration) on Met-5A cells after rTGF-β1; type: cell-based, human; settings: cells treated with rTGF-β1
Protocol: as §3
Therefore, HSP27 inhibition blocked this all well known features of EMT induced by TGF-β1 in cultured cells. This corresponded to HSP27 expression levels (FIG. 3G).

Substance: HSP27 siRNA: siRNA, sense 5′-GUUCAAAGCAACCACCUGUtt-3′ (SEQ ID No: 4), antisense 5′-ACAGGUGGUUGCUUUGAACtt-3′ (SEQ ID No: 5) (sense GUUCAAAGCAACCACCUGUTT; antisense ACAGGUGGUUGCUUUGAACTT; chemistry not given here; listed as Homo sapiens)
- rTGF-β1 induced α-SMA ([1]; Met-5A cells): inhibits
- rTGF-β1-induced E-cadherin down-regulation ([1]; 48 h): blocks
- rTGF-β1-induced α-SMA upregulation ([1]; 48 h): blocks
- rTGF-β1 induced α-SMA [2]: inhibits
- migration capacity in scratch test [3]: much weaker migration
- wound recovery by 48 h ([3]; 48 h): still largely unrecovered
